Values joined by “and” are separate entries in the source; they are usually repeats but may differ in a detail not shown here. Equal values may be shown once. Toxic doses and inconclusive results are not listed.
System: L1210 leukemia ip in BDF1 mice, survival T/C
Test: NCI In Vivo Anticancer Drug Screen. Data for tumor model L1210 Leukemia (intraperitoneal) in B6D2F1 (BDF1) mice
Conditions: endpoint: mean survival time, higher = longer survival
Outline: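 Tumor was transplanted into mice, which were then dosed with test compound or vehicle alone. Survival was recorded for each group, and the treated figure was expressed relative to the control figure.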

[1] = dose: 100.0 mg/kg/injection, schedule: Q01DX009 (ip), vehicle: saline
[2] = dose: 100.0 mg/kg/injection, schedule: Q01DX009 (ip), vehicle: Klucel (hydroxypropylcellulose) (HPC)
[3] = dose: 200.0 mg/kg/injection, schedule: Q01DX009 (ip), vehicle: Klucel (hydroxypropylcellulose) (HPC)
[4] = dose: 400.0 mg/kg/injection, schedule: Q01DX009 (ip), vehicle: Klucel (hydroxypropylcellulose) (HPC)
[5] = dose: 100.0 mg/kg/injection, schedule: Q04DX003 (ip), vehicle: Klucel (hydroxypropylcellulose) (HPC)
[6] = dose: 200.0 mg/kg/injection, schedule: Q04DX003 (ip), vehicle: Klucel (hydroxypropylcellulose) (HPC)
[7] = dose: 400.0 mg/kg/injection, schedule: Q04DX003 (ip), vehicle: Klucel (hydroxypropylcellulose) (HPC)
[8] = dose: 100.0 mg/kg/injection, schedule: Q04DX002 (ip), vehicle: Klucel (hydroxypropylcellulose) (HPC)
[9] = dose: 200.0 mg/kg/injection, schedule: Q04DX002 (ip), vehicle: Klucel (hydroxypropylcellulose) (HPC)
[10] = dose: 400.0 mg/kg/injection, schedule: Q04DX002 (ip), vehicle: Klucel (hydroxypropylcellulose) (HPC)

Question: Which results are given for `CCC(O)(COC(N)=O)c1ccccc1` (centres undefined)?
Answer: T/C (dose: 100.0 mg/kg/injection, schedule: Q01DX001 (ip), vehicle: carboxymethylcellulose (CMC)): 97 % of control; T/C (dose: 200.0 mg/kg/injection, schedule: Q01DX001 (ip), vehicle: carboxymethylcellulose (CMC)): 108 % of control; T/C (dose: 400.0 mg/kg/injection, schedule: Q01DX001 (ip), vehicle: carboxymethylcellulose (CMC)): 94 % of control

Question: How did the T/C (dose: 100.0 mg/kg/injection, schedule: Q04DX003 (ip), vehicle: saline with Tween-80) turn out when `C=C(C)COc1c(CCC)cc(C)cc1NC(C)=O` was run?
Answer: 106 % of control

Question: And the T/C (dose: 200.0 mg/kg/injection, schedule: Q04DX003 (ip), vehicle: saline with Tween-80)?
Answer: 97 % of control

Question: And the T/C (dose: 400.0 mg/kg/injection, schedule: Q04DX003 (ip), vehicle: saline with Tween-80)?
Answer: 104 % of control

Question: With `CC(=[N-])CC(C)=O.CC(=[N-])CC(C)=O.[Co+2]` as the compound, how does the T/C (dose: 12.5 mg/kg/injection, schedule: Q01DX001 (ip), vehicle: saline) read?
Answer: 86 % of control

Question: And the T/C (dose: 25.0 mg/kg/injection, schedule: Q01DX001 (ip), vehicle: saline)?
Answer: 98 % of control

Question: With `CCCOCC(O)CO` (centres undefined) as the compound, how does the T/C [1] read?
Answer: 100 % of control

Question: And the T/C (dose: 100.0 mg/kg/injection, schedule: Q04DX003 (ip), vehicle: saline)?
Answer: 107 % of control

Question: What about the T/C (dose: 200.0 mg/kg/injection, schedule: Q01DX009 (ip), vehicle: saline) of the same compound?
Answer: 98 % of control

Question: What about the T/C (dose: 200.0 mg/kg/injection, schedule: Q04DX003 (ip), vehicle: saline) of the same compound?
Answer: 102 % of control

Question: What about the T/C (dose: 400.0 mg/kg/injection, schedule: Q01DX009 (ip), vehicle: saline) of the same compound?
Answer: 102 % of control

Question: And the T/C (dose: 400.0 mg/kg/injection, schedule: Q04DX003 (ip), vehicle: saline)?
Answer: 110 % of control

Question: `CCOC(=O)c1ccc(NC(=O)Nc2ccc(SC)cc2)cc1` was tested. Which T/C [2] did it give?
Answer: 98 % of control

Question: What about the T/C [3] of the same compound?
Answer: 95 % of control

Question: What about the T/C [4] of the same compound?
Answer: 104 % of control

Question: Which results are given for `C#CC(O)C1OC2OC(C)(C)OC2C1O` (centres undefined)?
Answer: T/C [2]: 173 % of control; T/C [5]: 101 % of control; T/C [3]: 97 % of control; T/C [6]: 101 % of control; T/C [4]: 96 % of control; T/C [7]: 113 % of control

Question: With `CN(C)c1ccc(/C=C/c2ccc(N(C)C)cc2)cc1` as the compound, how does the T/C [2] read?
Answer: 98 % of control

Question: What about the T/C [5] of the same compound?
Answer: 98 % of control

Question: What about the T/C [3] of the same compound?
Answer: 102 % of control

Question: And the T/C [6]?
Answer: 94 % of control

Question: What about the T/C [4] of the same compound?
Answer: 93 % of control

Question: And the T/C [7]?
Answer: 100 % of control

Question: What does the source list for `O=C(O)C1C2OC(C(Cl)C2Cl)C1C(=O)O` (centres undefined)?
Answer: T/C [8]: 98 % of control; T/C [9]: 103 % of control; T/C [10]: 95 % of control

Question: `CCN(CC)CCn1ccnc1C` was tested. Which T/C (dose: 50.0 mg/kg/injection, schedule: Q01DX005 (ip), vehicle: saline) did it give?
Answer: 109 % of control

Question: What about the T/C (dose: 100.0 mg/kg/injection, schedule: Q01DX005 (ip), vehicle: saline) of the same compound?
Answer: 104 % of control

Question: And the T/C (dose: 200.0 mg/kg/injection, schedule: Q01DX005 (ip), vehicle: saline)?
Answer: 104 % of control

Question: For `O=C(O)C1CC1c1ccc(Br)cc1` (centres undefined), which T/C [8] is on record?
Answer: 123 % of control

Question: And the T/C [9]?
Answer: 100 % of control

Question: `CCN(CC)CCOC(=O)Nc1cccc(Cl)c1` was tested. Which T/C (dose: 25.0 mg/kg/injection, schedule: Q01DX009 (ip), vehicle: saline) did it give?
Answer: 100 % of control

Question: And the T/C (dose: 50.0 mg/kg/injection, schedule: Q01DX009 (ip), vehicle: saline)?
Answer: 98 % of control

Question: And the T/C [1]?
Answer: 100 % of control and 109 % of control

Question: How did the T/C [8] turn out when `CCOC(=O)c1oc2c(C(C)=O)c(O)ccc2c1C` was run?
Answer: 101 % of control and 103 % of control and 92 % of control

Question: What about the T/C [9] of the same compound?
Answer: 101 % of control and 103 % of control and 92 % of control

Question: What about the T/C [10] of the same compound?
Answer: 108 % of control

Question: What about the T/C (dose: 800.0 mg/kg/injection, schedule: Q04DX002 (ip), vehicle: Klucel (hydroxypropylcellulose) (HPC)) of the same compound?
Answer: 93 % of control and 95 % of control

Question: `C#CCC#CCCCCCC` was tested. Which T/C (dose: 50.0 mg/kg/injection, schedule: Q01DX009 (ip), vehicle: saline with Tween-80) did it give?
Answer: 95 % of control

Question: And the T/C (dose: 100.0 mg/kg/injection, schedule: Q01DX009 (ip), vehicle: saline with Tween-80)?
Answer: 95 % of control

Question: What about the T/C (dose: 200.0 mg/kg/injection, schedule: Q01DX009 (ip), vehicle: saline with Tween-80) of the same compound?
Answer: 95 % of control

Question: How did the T/C (dose: 100.0 mg/kg/injection, schedule: Q04DX002 (ip), vehicle: other) turn out when `CCCCCCCCCCCCCCCCCC` was run?
Answer: 96 % of control

Question: And the T/C (dose: 200.0 mg/kg/injection, schedule: Q04DX002 (ip), vehicle: other)?
Answer: 92 % of control
